Experiments:
Hepatotoxicity [1] = assay: Literature-mined compound from Fourches et al multi-species drug-induced liver injury (DILI) dataset, effect in humans; details: human
Hepatotoxicity [2] = assay: Literature-mined compound from Fourches et al multi-species drug-induced liver injury (DILI) dataset, effect in rodents; details: rodentia
Hepatotoxicity [3] = assay: Literature-mined compound from Fourches et al multi-species drug-induced liver injury (DILI) dataset, effect in non-rodents

Compound | Hepatotoxicity (Hepatotoxicity [1]) | Hepatotoxicity (Hepatotoxicity [2]) | Hepatotoxicity (Hepatotoxicity [3]) | Hepatotoxicity (Hepatotoxicity [1]; Liver) | Hepatotoxicity (Hepatotoxicity [2]; Liver) | Hepatotoxicity (Hepatotoxicity [3]; Liver)
CCN1CCCC1CNC(=O)c1cc(S(N)(=O)=O)ccc1OC (centres undefined) [SULPIRIDE] | drug-induced liver injury reported | no drug-induced liver injury reported | drug-induced liver injury reported |  |  | 
C#C[C@]1(O)CC[C@H]2[C@@H]3CCc4cc(O)ccc4[C@H]3CC[C@@]21C [ETHINYL ESTRADIOL] | drug-induced liver injury reported | drug-induced liver injury reported | drug-induced liver injury reported |  |  | 
O=C(NCC1CCCCN1)c1cc(OCC(F)(F)F)ccc1OCC(F)(F)F (centres undefined) [FLECAINIDE] | drug-induced liver injury reported | no drug-induced liver injury reported | no drug-induced liver injury reported |  |  | 
OCCSCCCCCCCCCCSCCO [TIADENOL] | no drug-induced liver injury reported | drug-induced liver injury reported | no drug-induced liver injury reported |  |  | 
CCCC1(CCC)CCC2(CCN(CCCN(CC)CC)C2)CC1 [ATIPRIMOD] | drug-induced liver injury reported | no drug-induced liver injury reported | no drug-induced liver injury reported |  |  | 
NC(=O)NC1NC(=O)NC1=O (centres undefined) [ALLANTOIN] | no drug-induced liver injury reported | drug-induced liver injury reported | no drug-induced liver injury reported |  |  | 
IRON(II) CITRATE | no drug-induced liver injury reported | drug-induced liver injury reported | no drug-induced liver injury reported |  |  | 
COC1=C(OC)C(=O)C(CCCCCCCCCCO)=C(C)C1=O [IDEBENONE] | no drug-induced liver injury reported | drug-induced liver injury reported | no drug-induced liver injury reported |  |  | 
COC(=O)C[C@](O)(CCCC(C)(C)O)C(=O)O[C@@H]1C(OC)=C[C@]23CCCN2CCc2cc4c(cc2[C@H]13)OCO4 [OMACETAXINE MEPESUCCINATE] | drug-induced liver injury reported | no drug-induced liver injury reported | no drug-induced liver injury reported |  |  | 
CN1CCN(C2=Nc3cc(Cl)ccc3Nc3ccccc32)CC1 [CLOZAPINE] | drug-induced liver injury reported | no drug-induced liver injury reported | no drug-induced liver injury reported |  |  | 
Oc1ccc(O)cc1 [HYDROQUINONE] |  |  |  | drug-induced liver injury reported | drug-induced liver injury reported | no drug-induced liver injury reported
Nc1cc(-c2ccncc2)c[nH]c1=O [INAMRINONE] | no drug-induced liver injury reported | drug-induced liver injury reported | no drug-induced liver injury reported |  |  | 
CC(=O)[C@H]1CC[C@H]2[C@@H]3CCC4=CC(=O)CC[C@]4(C)[C@H]3CC[C@]12C (stereo in doubt; form 1) [PROGESTERONE] | drug-induced liver injury reported | drug-induced liver injury reported | drug-induced liver injury reported |  |  | 
CC1=C(CC(=O)NCc2ccccc2)c2cc(F)ccc2/C1=C\c1ccncc1.Cl [CP-461] | drug-induced liver injury reported | no drug-induced liver injury reported | no drug-induced liver injury reported |  |  | 
CCCCC(=O)O[C@H]1CC[C@H]2[C@@H]3CCc4cc(O)ccc4[C@H]3CC[C@]12C [ESTRADIOL VALERATE] | no drug-induced liver injury reported | drug-induced liver injury reported | no drug-induced liver injury reported |  |  | 
COc1cc2ncnc(Nc3ccc(F)c(Cl)c3)c2cc1OCCCN1CCOCC1 [GEFITINIB] | drug-induced liver injury reported | drug-induced liver injury reported | no drug-induced liver injury reported |  |  | 
SILYMARIN | drug-induced liver injury reported | drug-induced liver injury reported | no drug-induced liver injury reported |  |  | 
CCCCC[C@H](O)/C=C/[C@@H]1[C@@H](C/C=C\CCCC(=O)O)[C@@H](O)C[C@H]1O [DINOPROST] | drug-induced liver injury reported | drug-induced liver injury reported | drug-induced liver injury reported |  |  | 
N=C(N)NC(=O)c1nc(Cl)c(N)nc1N [AMILORIDE] | drug-induced liver injury reported | drug-induced liver injury reported | no drug-induced liver injury reported |  |  | 

Compound | Hepatotoxicity (Hepatotoxicity [1]) | Hepatotoxicity (Hepatotoxicity [2]) | Hepatotoxicity (Hepatotoxicity [3]) | Hepatotoxicity (Hepatotoxicity [1]; Liver) | Hepatotoxicity (Hepatotoxicity [2]; Liver) | Hepatotoxicity (Hepatotoxicity [3]; Liver)
Cc1ccc(C(=O)c2cc(O)c(O)c([N+](=O)[O-])c2)cc1 [TOLCAPONE] |  |  |  | drug-induced liver injury reported | drug-induced liver injury reported | no drug-induced liver injury reported
O=C1c2cccc(O)c2C(=O)c2c(O)cccc21 [DANTHRON] | no drug-induced liver injury reported | drug-induced liver injury reported | no drug-induced liver injury reported |  |  | 
CC1Cc2ccccc2N1NC(=O)c1ccc(Cl)c(S(N)(=O)=O)c1 (centres undefined) [INDAPAMIDE] | no drug-induced liver injury reported | drug-induced liver injury reported | no drug-induced liver injury reported |  |  | 
CC[C@@H](C(N)=O)N1CCCC1=O | drug-induced liver injury reported | no drug-induced liver injury reported | no drug-induced liver injury reported |  |  | 
CCOC(=O)C(C)(C)Oc1ccc(Cl)cc1 [CLOFIBRATE] | drug-induced liver injury reported | drug-induced liver injury reported | drug-induced liver injury reported |  |  | 
CN1C(=O)CCS(=O)(=O)C1c1ccc(Cl)cc1 (centres undefined) [CHLORMEZANONE] | drug-induced liver injury reported | no drug-induced liver injury reported | no drug-induced liver injury reported |  |  | 
Cc1ccnc(NS(=O)(=O)c2ccc(N)cc2)n1 [SULFAMERAZINE] | no drug-induced liver injury reported | drug-induced liver injury reported | no drug-induced liver injury reported |  |  | 
CCCCCCCCCCCCCCCCCC(=O)O.CC[C@H]1OC(=O)[C@H](C)[C@@H](O[C@H]2C[C@@](C)(OC)[C@@H](O)[C@H](C)O2)[C@H](C)[C@@H](O[C@@H]2O[C@H](C)C[C@H](N(C)C)[C@H]2O)[C@](C)(O)C[C@@H](C)C(=O)[C@H](C)[C@@H](O)[C@]1(C)O [ERYTHROMYCIN STEARATE] | drug-induced liver injury reported | no drug-induced liver injury reported | no drug-induced liver injury reported |  |  | 
CCCCC[C@H](O)/C=C/[C@H]1[C@H](O)CC(=O)[C@@H]1CCCCCCC(=O)O [ALPROSTADIL] | drug-induced liver injury reported | drug-induced liver injury reported | drug-induced liver injury reported |  |  | 
CCCCN1C[C@H](O)[C@@H](O)[C@H](O)[C@H]1CO | no drug-induced liver injury reported | drug-induced liver injury reported | no drug-induced liver injury reported |  |  | 
BLEOMYCIN | drug-induced liver injury reported | drug-induced liver injury reported | no drug-induced liver injury reported |  |  | 
CC(=O)O[C@]1(C(C)=O)CC[C@H]2[C@@H]3C=C(Cl)C4=CC(=O)[C@@H]5C[C@@H]5[C@]4(C)[C@H]3CC[C@@]21C [CYPROTERONE ACETATE] | drug-induced liver injury reported | drug-induced liver injury reported | no drug-induced liver injury reported |  |  | 
Cc1ccccc1-n1c(C)nc2ccccc2c1=O [METHAQUALONE] | no drug-induced liver injury reported | drug-induced liver injury reported | no drug-induced liver injury reported |  |  | 
CCOC(=O)[C@H](CCc1ccccc1)N[C@@H](C)C(=O)N1CCC[C@H]1C(=O)O | drug-induced liver injury reported | drug-induced liver injury reported | no drug-induced liver injury reported |  |  | 
CNC1=Nc2ccc(Cl)cc2C(c2ccccc2)=[N+]([O-])C1 [CHLORDIAZEPOXIDE] | no drug-induced liver injury reported | drug-induced liver injury reported | no drug-induced liver injury reported |  |  | 
C#C[C@]1(O)CC[C@H]2[C@@H]3CCC4=CCCC[C@@H]4[C@H]3C(=C)C[C@@]21CC.C#C[C@]1(O)CC[C@H]2[C@@H]3CCc4cc(O)ccc4[C@H]3CC[C@@]21C [MARVELON] | drug-induced liver injury reported | no drug-induced liver injury reported | no drug-induced liver injury reported |  |  | 
VITAMIN K | drug-induced liver injury reported | drug-induced liver injury reported | no drug-induced liver injury reported |  |  | 
CC[C@]1(O)C[C@@H]2CN(CCc3c([nH]c4ccccc34)[C@@](C(=O)OC)(c3cc4c(cc3OC)N(C)[C@H]3[C@@](O)(C(=O)OC)[C@H](OC(C)=O)[C@]5(CC)C=CCN6CC[C@]43[C@@H]65)C2)C1 [VINBLASTINE] | drug-induced liver injury reported | drug-induced liver injury reported | no drug-induced liver injury reported |  |  | 
CC1(C)NC(=O)N(c2ccc([N+](=O)[O-])c(C(F)(F)F)c2)C1=O [NILUTAMIDE] |  |  |  | drug-induced liver injury reported | drug-induced liver injury reported | no drug-induced liver injury reported
